Biological target: T1, AngCDA (Aspergillus niger, UniProt A2QZC8)
T1 construct: gene An12g04480; signal peptide (residues 1-19) removed; N- and C-terminal Strep-tag II; E. coli Rosetta 2 (DE3); monomer; the crystal used a pelB / C-terminal Strep-tag II construct
T1 sequence (A2QZC8 20-239): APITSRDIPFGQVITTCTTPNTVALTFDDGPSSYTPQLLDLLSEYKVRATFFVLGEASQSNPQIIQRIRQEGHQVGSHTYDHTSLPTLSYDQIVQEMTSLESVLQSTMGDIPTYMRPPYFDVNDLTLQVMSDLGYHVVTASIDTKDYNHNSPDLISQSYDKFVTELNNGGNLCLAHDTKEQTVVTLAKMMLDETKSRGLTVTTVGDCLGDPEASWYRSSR
Assay: HILIC-ESI-MS product quantification and sequencing
Assay type: biochemical
Details: deacetylation; 0.5 mM substrate, 50 mM TEA pH 7, 37 °C

Row | SMILES | HILIC-ESI-MS product quantification and sequencing
1 | CC(=O)N[C@H]1[C@H](O[C@H]2[C@H](O)[C@@H](NC(C)=O)[C@H](O[C@H]3[C@H](O)[C@@H](NC(C)=O)C(O)O[C@@H]3CO)O[C@@H]2CO)O[C@H](CO)[C@@H](O[C@@H]2O[C@H](CO)[C@@H](O[C@@H]3O[C@H](CO)[C@@H](O)[C@H](O)[C@H]3NC(C)=O)[C@H](O)[C@H]2NC(C)=O)[C@@H]1O (some centres unmarked) [A5] | mode of action of AngCDA deacetylating chitopentaose (A5)
2 | CC(=O)N[C@H]1[C@H](O[C@H]2[C@H](O)[C@@H](NC(C)=O)C(O)O[C@@H]2CO)O[C@H](CO)[C@@H](O[C@@H]2O[C@H](CO)[C@@H](O[C@@H]3O[C@H](CO)[C@@H](O)[C@H](O)[C@H]3NC(C)=O)[C@H](O)[C@H]2NC(C)=O)[C@@H]1O (some centres unmarked) [A4, chitotetraose] | mode of action of AngCDA deacetylating chitotetraose (A4)

Reference: article PMC8488497, “In silico and in vitro analysis of an Aspergillus niger chitin deacetylase to decipher its subsite sugar preferences” (The Journal of Biological Chemistry, 2021)
